The subject of assay [1] is Streptococcus pneumoniae Pen^S, Tel^S, Mac^S. Kind of assay: MIC against streptococci clinical isolates (Table 3). In kind it is cell-based. Conditions: 10 strains.
Assay [2] has as its system Streptococcus pneumoniae Pen^R, Tel^1/^R, Mac^R. Described as above. The conditions noted are these: S. pneumoniae Pen^R, 12 strains, constitutive ermB. In kind it is cell-based.
For assay [3], the system named is Streptococcus pyogenes Tel^S, Mac^S. The assay is described as above. In kind it is cell-based. Conditions: 10 strains.
Assay [4] deals with Streptococcus pyogenes Tel^R, Mac^R. The description is as above. It is filed as cell-based. The conditions noted are these: S. pyogenes Tel^R, Mac^R; 9 strains (8 ermB, 1 ermA, constitutive).
Assay [5] concerns bacterial protein synthesis (E. coli S30 extract). In words: E. coli cell-free transcription-translation (TnT) S30 system, firefly luciferase synthesis. The conditions noted are these: read-out: IC50 of inhibition of firefly luciferase synthesis, ribosomes 600 nM.
For assay [6], the system named is S. pneumoniae ATCC 49619/WT. Kind of assay: Conventional antibacterial screen. In kind it is cell-based.
In another assay the test system is S. pneumoniae 117-20B/WT. In words: Conventional antibacterial screen. It is filed as cell-based.
Assay [7] concerns S. pneumoniae 014-4331A/mefA. In words: Conventional antibacterial screen. In kind it is cell-based.
For assay [8], the system named is S. pneumoniae 007-4589A/ermB. Kind of assay: Conventional antibacterial screen. In kind it is cell-based.
Assay [9] deals with S. pneumoniae 120-1037B/-ermB/mefA. Kind of assay: Conventional antibacterial screen. In kind it is cell-based.
Another assay deals with S. pyogenes ATCC 19615. In words: Conventional antibacterial screen. It is filed as cell-based.
For assay [10], the system named is S. pyogenes 129-7129A/ermA. Kind of assay: Conventional antibacterial screen. In kind it is cell-based.
The subject of assay [11] is S. pyogenes 089-14217A/ermB. Kind of assay: Conventional antibacterial screen. It is filed as cell-based.
The test system of the next assay is S. aureus 024-11A/WT. Kind of assay: Conventional antibacterial screen. It is filed as cell-based.
In another assay the test system is S. aureus ATCC 29213/WT. In words: Conventional antibacterial screen. In kind it is cell-based.
The next assay has as its system S. aureus BAA-977/ermA. In words: Conventional antibacterial screen. It is filed as cell-based.
In a further assay the test system is S. aureus D-5/ermA. In words: Conventional antibacterial screen. It is filed as cell-based.
Another assay relates to M. luteus ATCC 9341/WT. In words: Conventional antibacterial screen. In kind it is cell-based.
In another assay the test system is E. coli ATCC 25922/WT. Kind of assay: Conventional antibacterial screen. It is filed as cell-based.
A further assay has as its system E. coli 122-5930A/WT. In words: Conventional antibacterial screen. It is filed as cell-based.
For assay [12], the system named is E. coli ribosomes (23S rRNA). In words: RNA footprinting (ribosome chemical probing), wild-type E. coli ribosomes. In kind it is binding. Conditions: 100 μM antibiotic; for Protection of A752 from DMS modification: E. coli ribosomes. The protocol: (§1) Ribosome chemical probing. rRNA probing was done following standard protocols (Merryman, C., and H. F. Noller. 1998. Footprinting and modification-interference analysis of binding sites on RNA, p. 237-253. In C. W. J. Smith (ed.), RNA:Protein Interactions, A Practical Approach. Oxford University Press, Oxford), with minor modifications. Briefly, 200 nM ribosomes were incubated with 100 μM antibiotic in 50 μL of buffer B (80 mM HEPES-KOH [pH 7.8], 20 mM MgCl2, 100 mM NH4Cl, 1.5 mM dithiothreitol) for 10 min at 37° C., followed by 10 min at 20° C. Modifying reagents (dimethyl sulfate [DMS], kethoxal, or 1-cyclohexyl-3-(2-morpholinoethyl)carbodiimide metho p-toluene sulfonate [CMCT]) were added and the modification reaction was carried out for 10 min at 37° C. After quenching the reaction and ethanol precipitation, rRNA was extracted and the distribution of modified nucleotides was assessed by primer extension.
(§2) Interactions of CEM-101 with wild-type E. coli and S. aureus ribosomes in solution. […] 1987. Chloramphenicol, erythromycin, carbomycin and vernamycin B protect overlapping sites in the peptidyl transferase region of 23S ribosomal RNA. Biochimie 69:879-884). Also included in this study was a C3-cladinose cousin of CEM-101, CEM-103, which lacks the C2-linked fluorine atom.

Assay [13] concerns S. aureus ribosomes (23S rRNA). In words: RNA footprinting (ribosome chemical probing), wild-type S. aureus ribosomes. It is filed as binding. Conditions: 100 μM antibiotic; for Protection of A752 from DMS modification: S. aureus ribosomes. As to the method:
as §1, §2

Assay [14] has as its system 2058-dimethylated ribosomes isolated from the S. aureus N315 strain. In words: RNA footprinting of A2058-dimethylated (Erm-modified) ribosomes from S. aureus N315. It is filed as binding. Conditions: S. aureus N315 ribosomes dimethylated at A2058, drugs at 100 μM. The protocol: as §1
Interaction of CEM-101 with S. aureus ribosomes dimethylated at A2058 by Erm-methyltransferase. Erm-methyltransferase modifies A2058 in 23S rRNA by consecutively adding two methyl groups to the exocyclic amino group of the adenine base. Such modification completely blocks binding of erythromycin and similar macrolides, whereas its effect on binding of ketolides is less clear (Douthwaite, S., L. H. Hansen, and P. Mauvais. 2000. Macrolide-ketolide inhibition of MLS-resistant ribosomes is improved by alternative drug interaction with domain R of 23S rRNA. Mol. Microbiol. 36:183-193; Liu, M., and S. Douthwaite. 2002. Activity of the ketolide telithromycin is refractory to Erm monomethylation of bacterial rRNA. Antimicrob. Agents Chemother. 46:1629-1633). Therefore, interaction of CEM-101 with the ribosomes isolated from a clinical S. aureus strain N315, which carries five chromosomal copies of constitutively expressed ermA gene present in the Tn554 transposon (Kuroda, M., T. Ohta, I. Uchiyama, T. Baba, H. Yuzawa, I. Kobayashi, L. Cui, A. Oguchi, K. Aoki, Y. Nagai, J. Lian, T. Ito, M. Kanamori, H. Matsumaru, A. Maruyama, H. Murakami, A. Hosoyama, Y. Mizutani-Ui, N. K. Takahashi, T. Sawano, R. Inoue, C. Kaito, K. Sekimizu, H. Hirakawa, S. Kuhara, S. Goto, J. Yabuzaki, M. Kanehisa, A. Yamashita, K. Oshima, K. Furuya, C. Yoshino, T. Shiba, M. Hattori, N. Ogasawara, H. Hayashi, and K. Hiramatsu. 2001. Whole genome sequencing of meticillin-resistant Staphylococcus aureacs. Lancet 357:1225-1240) was investigated.
Footprinting analysis was used to test interactions of ketolides (CEM-101 and telithromycin) and cladinose-containing macrolides (CEM-103 and erythromycin) with the 2058-dimethylated ribosomes isolated from the S. aureus N315 strain. Ribosomes were incubated with the drugs (present at 100 μM concentration) and probed by DMS modification. Because dimethylated A2058 blocks progression of reverse transcriptase along the RNA template, a strong reverse transcriptase stop is observed at A2058 on the primer extension gel (Vester, B., and S. Douthwaite. 1994. Domain V of 23S rRNA contains all the structural elements necessary for recognition by the ErmE methyltransferase. J. Bacteriol. 176:6999-7004; Zhong, P., Z. Cao, R. Hammond, Y. Chen, J. Beyer, V. D. Shortridge, L. Y. Phan, S. Pratt, J. Capobianco, K. A. Reich, R. K. Flamm, Y. S. Or, and L. Katz. 1999. Induction of ribosome methylation in MLS-resistant Streptococcus pneumoniae by macrolides and ketolides. Microb. Drug Resist. 5:183-188). Therefore, it is impossible to use footprinting to evaluate interactions of macrolides with this position in the S. aureus N315 ribosomes. […]

One may read the MIC50 as the lowest concentration that inhibits either 50% of growth or 50% of the strains tested, depending on the study. Higher therefore signals weaker potency. For orientation: MIC90 means the lowest concentration that inhibits either 90% of growth or 90% of the strains tested, depending on the study. Lower therefore signals greater potency. Turning to “11-N-[4-[4-(3-aminophenyl)[1,2,3]triazol-1-yl]butyl]-5-O-desosaminyl-6-O-methyl-3-oxo-erythronolide A 11,12-cyclic carbamate [CEM-Des-F]”, the MIC50 was 0.03 µg/mL in [1], 4 µg/mL in [2], 0.03 µg/mL in assay [3] and 2 µg/mL in assay [4]. In addition, the MIC90 in [1] amounted to 0.03 µg/mL; in assay [2] it was 4 µg/mL; in [3] it was 0.03 µg/mL; in [4], 2 µg/mL.
For orientation: IC50 means the concentration needed to halve the response being measured. Turning to `CC[C@H]1OC(=O)[C@H](C)[C@@H](O[C@H]2C[C@@](C)(OC)[C@@H](O)[C@H](C)O2)[C@H](C)[C@@H](O[C@@H]2O[C@H](C)C[C@H](N(C)C)[C@H]2O)[C@](C)(O)C[C@@H](C)CN(C)[C@H](C)[C@@H](O)[C@]1(C)O` [azithromycin], the concentration for half-maximal inhibition (IC50) in assay [5] was 300 nM.
`CC[C@H]1OC(=O)[C@H](C)C(=O)[C@H](C)[C@@H](OC2O[C@H](C)C[C@H](N(C)C)[C@H]2O)[C@@](C)(OC)C[C@@H](C)C(=O)[C@H](C)[C@H]2N(CCCCn3cc(Cc4c[nH]c5ccccc45)nn3)C(=O)O[C@]12C` (stereo partly shown) [CEM-199, 5-O-desosaminyl-11-N-[4-[4-(indol-3-ylmethyl)[1,2,3]triazol-1-yl]butyl]-6-O-methyl-3-oxo-erythronolide A 11,12-cyclic carbamate]: the Screening result worked out at 0.06 in assay [6]; 0.06 in the assay with S. pneumoniae 117-20B/WT; 1 in assay [7]; 0.12 in assay [8]; 0.5 in assay [9]; 0.06 in the assay with S. pyogenes ATCC 19615. In addition, the Screening result in assay [10] was 0.12; in assay [11], 1; in the assay on S. aureus 024-11A/WT it was 0.5; in the assay with S. aureus ATCC 29213/WT it was 0.5; in the assay on S. aureus BAA-977/ermA, 0.5; in the assay on S. aureus D-5/ermA it was >16. Also, the Screening result with M. luteus ATCC 9341/WT was determined as 0.06; with E. coli ATCC 25922/WT it was 16; in the assay on E. coli 122-5930A/WT it was 16.
For the molecule “11-N-[4-[4-(3-aminophenyl)[1,2,3]triazol-1-yl]butyl]-6-O-methylerythromycin A 11,12-cyclic carbamate [CEM-103]”, the “Protection of A752 from DMS modification” value in [12] is on record as “strongly protects”. Also, in [12] (E. coli wild-type ribosomes), the “Protection of A2058 and A2059 in domain V of 23S rRNA from modification with DMS” value is “protect”. Also, in [13], the “Protection of A752 from DMS modification” value is reported as “strongly protects”. Moreover, in assay [13] (S. aureus wild-type ribosomes), the “Protection of A2058 and A2059 in domain V of 23S rRNA from modification with DMS” value is on record as “protect”. For the same molecule, in [14], the “Protection of A2059 from DMS modification (binding to Erm-modified ribosome)” value is “protection of A2059 from DMS modification”, the “Protection of G2505 from kethoxal modification” value is reported as “partially protected” and the “Protection of U2609 from modification with CMCT” value was “fully protected”.
For `CC[C@H]1OC(=O)[C@H](C)C(=O)[C@H](C)[C@@H](O[C@@H]2O[C@H](C)C[C@H](N(C)C)[C@H]2O)[C@](C)(OC)C[C@@H](C)C(=O)[C@H](C)[C@H]2N(CCCCn3cnc(-c4cccnc4)c3)C(=O)O[C@]12C` [telithromycin], in [12], the “Protection of A752 from DMS modification” value is given as “strongly protects”. In [13], the “Protection of A752 from DMS modification” value is on record as “strongly protects”. Besides, in assay [14], the “Protection of A2059 from DMS modification (binding to Erm-modified ribosome)” value is reported as “protected A2059 but to a lesser extent than CEM-101 or CEM-103”, the “Protection of G2505 from kethoxal modification” value was “notably weaker protection” and the “Protection of U2609 from modification with CMCT” value is “notably weaker protection”. Further, the IC50 in assay [5] worked out at 500 nM.
As for `CC[C@H]1OC(=O)[C@@](C)(F)C(=O)[C@H](C)[C@@H](OC2O[C@H](C)C[C@H](N(C)C)[C@H]2O)[C@@](C)(OC)C[C@@H](C)C(=O)[C@H](C)[C@H]2N(CCCCn3cc(Cc4c[nH]c5ccccc45)nn3)C(=O)O[C@]12C` (stereo partly shown) [CEM-219, 2-fluoro-5-O-desosaminyl-11-N-[4-[4-(indol-3-ylmethyl)[1,2,3]triazol-1-yl]butyl]-6-O-methyl-3-oxo-erythronolide A 11,12-cyclic carbamate], the Screening result in assay [6] is listed as “≦0.015”; with S. pneumoniae 117-20B/WT it was “≦0.015”; in assay [7] it was 0.5; in [8], “≦0.015”; in assay [9], 0.12; with S. pyogenes ATCC 19615 it was “≦0.015”. The Screening result in assay [10] is reported as “≦0.015”; in assay [11], 0.5; in the assay with S. aureus 024-11A/WT it was 0.5; with S. aureus ATCC 29213/WT, 0.25; in the assay on S. aureus BAA-977/ermA, 0.25; in the assay on S. aureus D-5/ermA, >16. Further, the Screening result in the assay on M. luteus ATCC 9341/WT is listed as “≦0.015”; in the assay on E. coli ATCC 25922/WT, >16; in the assay on E. coli 122-5930A/WT, >16.

These data come from patent publication US9815863B2, “Hydrogen bond forming fluoro ketolides for treating diseases” (priority 2010, dated 2017).
